Data on one molecule can be found in patent US9968627B2 (Celgene Corporation, priority 2013, dated 2018).

Data set [1] in a line: Solubility of 5-azacytidine in various solvents at ambient temperature (visual, solvent aliquot addition). Format: physicochemical. The note with it: thermodynamic from solid. As for the experimental part:
Solubility was estimated by treating a weighed sample of 5-azacytidine with measured aliquots of the test solvent at ambient temperature, with shaking and/or sonication between aliquots. Dissolution was determined by visual inspection. Solubility numbers were calculated by dividing the […]. The actual solubilities may be greater than the numbers calculated because of the use of solvent aliquots that were too large or because of slow dissolution rates. […] The solubility number is expressed as “greater than” if dissolution occurred on addition of the first solvent aliquot.

The subject of data set [2] is subjects with higher-risk MDS. Particulars: Phase III study, administered subcutaneously; cited from earlier work.

Each structure is given as a SMILES string. ≈ marks a conversion by molar mass, not a printed value.

Usually solubility stands for the concentration that dissolves in the medium under given conditions. `Nc1ncn([C@@H]2O[C@H](CO)[C@@H](O)[C@H]2O)c(=O)n1` [5-azacytidine, 4-amino-1-β-D-ribofuranosyl-1,3,5-triazin-2(1H)-one]: the solubility in data set [1] (1:1 methanol/water, aqueous with cosolvent or surfactant or cyclodextrin, 1:1 methanol/water) was 2800 µg/mL (≈ 11.5 mM); in data set [1] (1:2 methanol/water, aqueous with cosolvent or surfactant or cyclodextrin, 1:2 methanol/water), 3100 µg/mL (≈ 12.7 mM); in data set [1] (1:2 methanol/water, aqueous with cosolvent or surfactant or cyclodextrin, 1:2 methanol/water (second line printed with this solvent)) it was 4600 µg/mL (≈ 18.8 mM); in data set [1] (DMF, organic solvent or mixture) it was 1700 µg/mL (≈ 6.96 mM); in data set [1] (DMSO, organic solvent or mixture) it was 2200 µg/mL (≈ 9.01 mM). Besides, in data set [2], the “Survival and time to AML transformation or death” value was “significantly prolonged survival and time to AML transformation or death”.
